Source: ChEMBL document CHEMBL1201862, “PubChem BioAssay data set” (2004)
Active and inactive are the calls of the source.

Experiments:
Staphylococcus aureus = assay: Inhibitors of Bacterial Quorum Sensing Structure Activity Relationship (SAR) Analysis: Dose Response Assay. [Related pubchem assays: 700, 527 ]; type: functional, organism-based
Tumor necrosis factor = Tumor necrosis factor (Homo sapiens, UniProt P01375); assay: analog potency on TNFa NF-kB signaling – cell-based, revised, SAR follow-up (AID 2337); type: functional
Tumor necrosis factor, sequence (P01375 whole entry): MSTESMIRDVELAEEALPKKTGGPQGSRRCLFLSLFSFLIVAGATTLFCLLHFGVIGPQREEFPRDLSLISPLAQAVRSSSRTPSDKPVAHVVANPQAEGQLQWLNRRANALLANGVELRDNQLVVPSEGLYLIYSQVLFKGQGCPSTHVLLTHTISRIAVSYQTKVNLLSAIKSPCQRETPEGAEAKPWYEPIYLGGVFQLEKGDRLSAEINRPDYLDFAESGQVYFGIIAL

Interleukin-8 = target: T1, Interleukin-8 (Homo sapiens, UniProt P10145); assay: SAR analysis of tumor necrosis factor alpha (TNF-alpha) induced IL-8 secretion in MCF-7/NOD1 cells. [Related pubchem assays (depositor defined):AID1575, AID2250, AID2260]; type: functional, cell-based
T1 sequence (P10145 whole entry): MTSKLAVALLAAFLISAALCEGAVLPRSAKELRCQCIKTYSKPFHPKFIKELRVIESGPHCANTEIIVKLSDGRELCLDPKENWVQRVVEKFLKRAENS

HEK293 = assay: cells; details: Homo sapiens;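 further: cells exposed to compound for 14 hours overnight before viability readout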
Cytochrome P450 3A4 = Cytochrome P450 3A4 (Homo sapiens, UniProt P08684); details: Potency;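 further: confirmatory qHTS run detecting inhibitors and substrates of CYP3A4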
Cytochrome P450 3A4, sequence (P08684 whole entry): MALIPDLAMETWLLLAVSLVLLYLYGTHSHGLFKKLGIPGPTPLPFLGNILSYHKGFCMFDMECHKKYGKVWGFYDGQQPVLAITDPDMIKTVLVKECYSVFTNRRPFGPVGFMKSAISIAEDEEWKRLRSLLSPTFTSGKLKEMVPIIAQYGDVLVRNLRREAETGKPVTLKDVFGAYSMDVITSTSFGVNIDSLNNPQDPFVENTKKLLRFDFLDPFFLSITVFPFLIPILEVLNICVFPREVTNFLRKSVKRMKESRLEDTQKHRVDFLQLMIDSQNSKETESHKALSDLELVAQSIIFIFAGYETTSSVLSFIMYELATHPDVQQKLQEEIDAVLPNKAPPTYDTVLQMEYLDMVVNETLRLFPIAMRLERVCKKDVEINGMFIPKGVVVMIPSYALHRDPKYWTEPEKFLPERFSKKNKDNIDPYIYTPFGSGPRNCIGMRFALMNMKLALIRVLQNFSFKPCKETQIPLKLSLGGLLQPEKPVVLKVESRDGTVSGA

Cytochrome P450 2C9 = Cytochrome P450 2C9 (Homo sapiens, UniProt P11712); details: Potency
Cytochrome P450 2C9, sequence (P11712 whole entry): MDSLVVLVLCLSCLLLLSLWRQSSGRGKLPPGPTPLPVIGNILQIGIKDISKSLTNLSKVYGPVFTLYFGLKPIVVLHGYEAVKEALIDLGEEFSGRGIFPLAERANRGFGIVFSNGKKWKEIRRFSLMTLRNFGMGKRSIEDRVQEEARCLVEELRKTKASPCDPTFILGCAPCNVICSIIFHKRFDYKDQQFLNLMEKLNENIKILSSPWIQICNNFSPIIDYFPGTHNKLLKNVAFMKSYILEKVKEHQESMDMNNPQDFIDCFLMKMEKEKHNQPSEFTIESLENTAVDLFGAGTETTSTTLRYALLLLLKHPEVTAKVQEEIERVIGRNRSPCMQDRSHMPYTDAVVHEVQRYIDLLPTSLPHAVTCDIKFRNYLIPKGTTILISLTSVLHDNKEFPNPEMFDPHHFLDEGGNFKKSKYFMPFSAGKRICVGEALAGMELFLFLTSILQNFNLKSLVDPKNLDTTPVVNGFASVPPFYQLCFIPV

[1] = target: Serine/threonine-protein phosphatase PP1-alpha catalytic subunit (Homo sapiens, UniProt P62136); assay: inhibition of protein phosphatase 1 activity – biochemical, fluorescence, dose response (AID 2403);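 further: phosphatase turnover of OMFP into fluorescent 3-O-methylfluorescein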
Serine/threonine-protein phosphatase PP1-alpha catalytic subunit, sequence (P62136 whole entry): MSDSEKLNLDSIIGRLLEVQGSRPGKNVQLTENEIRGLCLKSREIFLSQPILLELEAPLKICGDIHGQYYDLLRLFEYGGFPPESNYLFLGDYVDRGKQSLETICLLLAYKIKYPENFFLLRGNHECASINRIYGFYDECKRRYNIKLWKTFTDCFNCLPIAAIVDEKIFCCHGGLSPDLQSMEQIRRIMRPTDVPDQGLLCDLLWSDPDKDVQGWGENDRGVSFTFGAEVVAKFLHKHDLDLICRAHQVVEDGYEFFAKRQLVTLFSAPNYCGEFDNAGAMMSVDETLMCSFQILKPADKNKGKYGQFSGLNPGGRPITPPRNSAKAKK

SUMO-activating enzyme [2] = target: T2, SUMO-activating enzyme (Homo sapiens, UniProt Q9UBT2); assay: blockers of UBC9-mediated SUMO conjugation – biochemical, AlphaScreen, SUMOylation inhibitor project, confirmation (AID 2018); type: functional
T2 sequence (Q9UBE0 whole entry): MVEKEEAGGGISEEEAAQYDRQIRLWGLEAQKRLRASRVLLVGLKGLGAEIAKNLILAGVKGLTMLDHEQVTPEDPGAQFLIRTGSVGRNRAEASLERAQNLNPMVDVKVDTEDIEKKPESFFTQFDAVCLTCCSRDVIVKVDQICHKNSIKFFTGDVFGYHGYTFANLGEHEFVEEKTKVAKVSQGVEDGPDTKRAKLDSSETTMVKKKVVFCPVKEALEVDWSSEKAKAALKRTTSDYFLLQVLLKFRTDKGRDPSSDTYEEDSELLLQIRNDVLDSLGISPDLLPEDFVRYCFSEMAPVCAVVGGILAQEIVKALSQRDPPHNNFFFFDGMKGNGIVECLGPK
T2 sequence (Q9UBT2 whole entry): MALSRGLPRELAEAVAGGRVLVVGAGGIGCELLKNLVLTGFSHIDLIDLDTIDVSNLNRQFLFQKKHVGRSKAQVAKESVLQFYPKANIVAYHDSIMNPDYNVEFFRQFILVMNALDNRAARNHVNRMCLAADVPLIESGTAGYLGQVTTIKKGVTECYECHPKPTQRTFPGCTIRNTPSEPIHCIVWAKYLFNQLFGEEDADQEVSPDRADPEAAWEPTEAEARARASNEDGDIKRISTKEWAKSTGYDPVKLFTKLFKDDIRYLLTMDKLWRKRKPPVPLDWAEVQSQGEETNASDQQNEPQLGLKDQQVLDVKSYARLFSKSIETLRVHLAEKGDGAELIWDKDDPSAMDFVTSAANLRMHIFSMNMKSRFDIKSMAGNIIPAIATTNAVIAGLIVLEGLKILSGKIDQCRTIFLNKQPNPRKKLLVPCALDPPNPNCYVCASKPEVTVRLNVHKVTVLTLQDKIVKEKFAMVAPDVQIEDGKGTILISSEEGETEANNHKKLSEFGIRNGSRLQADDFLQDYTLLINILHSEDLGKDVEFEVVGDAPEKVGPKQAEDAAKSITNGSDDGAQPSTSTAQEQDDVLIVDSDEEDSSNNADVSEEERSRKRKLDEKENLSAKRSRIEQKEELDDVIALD

SUMO-activating enzyme [3] = target: T2, SUMO-activating enzyme; assay: blockers of SAE1/SAE2–UBC9 SUMO transfer – biochemical, HTRF, uHTS, primary screen (AID 2006); type: protein-complex assay
[4] = target: Serine/threonine-protein phosphatase (Homo sapiens, UniProt Q9BPW0); assay: Counterscreen for inhibitors of PP1: fluorescence-based biochemical high throughput dose response assay to identify inhibitors of Protein Phosphatase 5 (PP5). [Related pubchem assays: 2034 (Summary (PP5 inhibitors)), 1987 (PP5 inhibitors in singlate), 2235 (PP1 inhibitors in singlate)]
Serine/threonine-protein phosphatase, sequence (Q9BPW0 whole entry): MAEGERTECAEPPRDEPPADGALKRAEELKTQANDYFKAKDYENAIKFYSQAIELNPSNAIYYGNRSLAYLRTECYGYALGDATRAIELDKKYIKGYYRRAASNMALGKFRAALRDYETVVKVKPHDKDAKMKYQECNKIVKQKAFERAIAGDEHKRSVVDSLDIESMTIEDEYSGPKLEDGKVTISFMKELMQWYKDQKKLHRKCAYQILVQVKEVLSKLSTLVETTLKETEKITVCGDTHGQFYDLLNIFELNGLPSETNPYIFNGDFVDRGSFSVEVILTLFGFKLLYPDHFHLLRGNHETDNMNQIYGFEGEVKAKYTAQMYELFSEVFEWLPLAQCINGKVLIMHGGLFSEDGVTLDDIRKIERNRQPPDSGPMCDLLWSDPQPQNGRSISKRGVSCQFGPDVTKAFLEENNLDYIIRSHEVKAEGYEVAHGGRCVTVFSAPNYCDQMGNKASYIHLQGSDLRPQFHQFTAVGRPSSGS

[5] = THP-1 cell cytotoxicity, dose response, cytotoxicity control for non-replicating M. tuberculosis project (AID 489025); type: functional
[6] = Vero E6 cell cytotoxicity, dose response, cytotoxicity control for non-replicating M. tuberculosis project, secondary assay (AID 492998); type: functional, VeroE6; details: Vero C1008
cells = type: functional
[7] = viability loss in THP-1 monocytes – THP-1 cells, cytotoxicity control for Vif-APOBEC3G degradation inhibitor project, dose response (AID 1117359); type: functional; details: THP-1
[8] = HIV-1 Vif–A3G interaction blockers – biochemical, TR-FRET, GST-Vif 1-94, biotin-A3G peptide, dose response retest, primary screen (AID 1117319); type: functional;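 further: TR-FRET signal of purified GST-Vif binding a biotinylated A3G peptide; inhibitors lower the FRET signal by blocking Vif and A3G binding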
[9] = Counterscreen for IDE inhibitors: Luminescence-based cell-based high throughput dose response assay to identify compounds that are cytotoxic to HEK cells. [Related pubchem assays: 434962 (Primary screen (IDE inhibitors in singlicate)), 449730 (Counterscreen (Cytotoxicity in triplicate)), 435028 (Confirmation (IDE inhibitors in triplicate)) …; type: functional; details: HEK293
[10] = target: Cyclin-dependent kinase 5/CDK5 activator 1 (Homo sapiens, UniProt Q00535); assay: blockade of human CDK5 activity – biochemical, cherry-picked samples, set 2, dose response (AID 504545)
Cyclin-dependent kinase 5/CDK5 activator 1, sequence (Q00535 whole entry): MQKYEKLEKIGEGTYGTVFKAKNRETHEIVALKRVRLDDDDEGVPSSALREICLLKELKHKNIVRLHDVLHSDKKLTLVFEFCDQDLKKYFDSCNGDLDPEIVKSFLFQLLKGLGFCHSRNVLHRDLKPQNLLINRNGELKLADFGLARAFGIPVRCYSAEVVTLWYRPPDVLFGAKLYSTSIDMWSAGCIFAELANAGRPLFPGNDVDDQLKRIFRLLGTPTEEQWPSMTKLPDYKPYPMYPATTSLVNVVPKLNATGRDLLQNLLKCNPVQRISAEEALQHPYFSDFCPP
Cyclin-dependent kinase 5/CDK5 activator 1, sequence (Q15078 whole entry, further chain): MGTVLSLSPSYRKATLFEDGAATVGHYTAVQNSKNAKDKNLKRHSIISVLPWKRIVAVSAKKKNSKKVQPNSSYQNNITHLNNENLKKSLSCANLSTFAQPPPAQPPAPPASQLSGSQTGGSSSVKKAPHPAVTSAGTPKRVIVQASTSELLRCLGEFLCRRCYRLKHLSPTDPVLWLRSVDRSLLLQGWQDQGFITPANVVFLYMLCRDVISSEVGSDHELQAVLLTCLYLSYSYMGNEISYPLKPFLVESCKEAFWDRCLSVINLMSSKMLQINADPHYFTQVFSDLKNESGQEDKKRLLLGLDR

SMILES: CSCCC(NC(=O)c1ccccc1)C(=O)OCC(=O)Nc1sc2c(c1C#N)CCCC2 (configuration not stated)
- IC50 (Staphylococcus aureus): 0.44 µM (active)

SMILES: Nc1nc2ccccc2n1S(=O)(=O)c1ccc([N+](=O)[O-])cc1
- IC50 (Tumor necrosis factor): > 20 µM (inactive)
- IC50 (Interleukin-8): > 5 µM (inactive)
- IC50 (HEK293): > 20 µM (inactive)

SMILES: CC1(C)CCC[C@@]2(C)[C@@H]1CC[C@]1(C)OC(=O)C[C@@H]21
- AC50 (Cytochrome P450 3A4): 20 µM (inconclusive)
- AC50 (Cytochrome P450 2C9): 39.8 µM (inconclusive)

SMILES: O=C1NC(=O)C(=Cc2ccc(-c3cc(Cl)ccc3Cl)[nH]2)C(=O)N1
- IC50 [1]: 5.6 µM (active)
- IC50 (SUMO-activating enzyme [2]): 11.6 µM (active)
- IC50 (SUMO-activating enzyme [3]): 16.4 µM (active)
- IC50 [4]: > 67 µM (not active)
- CC50 [5]: 23.1 µM (active)
- CC50 [6]: > 20 µM (active)
- IC50 (cells): < 0.1 µM (active)
- CC50 [7]: > 40 µM (active)
- IC50 [8]: > 100 µM (active)

SMILES: Oc1nc2ccccc2c(O)c1O
- IC50 [9]: 13.6 µM (not active)

SMILES: O=C1NCCCc2c1oc1ccc(O)cc21
- AC50 [10]: 10.7 µM (active)
